The subject of assay [1] is Caenorhabditis elegans. As to the kind of experiment: In vitro nematode test. As to conditions: concentration at which reproduction is prevented, 7 days at 22°C; for minimal effective concentration: Caenorhabditis elegans, 168 h, read-out: Dosis effectiva. The protocol:
10-^4 g Wirkstoff wurden in 1 ml Wasser oder 0,1 ml Dimethylsulfoxid (DMSO) gelöst. Diese Lösung wurde auf eine Replica-Platte gegeben. Dazu wurden 2 ml einer E-coli-Suspension gegeben, in der man 10-20 weibliche Tiere oder Larven von Caenorhabditis elegans in 0,5 ml M9 Pufferlösung gegeben hat. Die E-coli-Suspension wurde hergestellt indem man 300 ml einer Ubernachthalter eines Uracil-bedürftigen E-coli-Stammes mit 1,8 1 steriler M 9 Pufferlösung versetzte.
Der Versuchsansatz wurde 7 Tage bei 22°C inkubiert und danach ausgewertet. Es wurde bewertet inwieweit der Wirkstoff die Vermehrung beeinträchtigt und die Konzentration angegeben bei der die Vermehrung verhindert wird.

The test system of assay [2] is Lucilia cuprina res.-Larven. The assay can be described thus: Test with resistant Lucilia cuprina larvae. The class given is in vivo. As to conditions: horse meat, after 24 hours, compared with the prior art, figures not given. The source says:
Test mit Lucilia cuprina resistent-Larven
• Emulgator: 35 Gewichtsteile Ethylenglykolmonomethylether • 35 Gewichtsteile Nonylphenolpolyglykolether
Zur Herstellung einer zweckmäßigen Wirkstoffzubereitung vermischt man drei Gewichtsteile Wirkstoff mit sieben Gewichtsteilen des oben angegebenen Gemisches und verdünnt das so erhaltene Konzentrat mit Wasser auf die jeweils gewünschte Konzentration.
Etwa 20 Lucilia cuprina res.-Larven werden in ein Teströhrchen gebracht, welches ca. 1 cm^3 Pferdefleisch und O,5 ml der Wirkstoffzubereitung enthält. Nach 24 Stunden wird der Abtötungsgrad bestimmt.

Assay [3] has as its system Mückenlarven (L4) (Aedes aegypti). The assay can be described thus: Aedes test (larvae in aqueous preparation). The class given is in vivo. As to conditions: 20 Aedes aegypti larvae (L4) per glass; compared with the prior art; figures not given. The source says:
• Löcungcmittal: 3 Gewichtsteile Aceton • Emulgator: 1 Gewichtsteil Alkylarylpolyglykolether
Zur Herstellung einer zweckmäßigen Wirkstoffzubereitung vermischt man 1 Gawichtcteil Wirkstoff mit der angegebenen Menge Löcungcmittel und der angegebenen Menge Emulgator und verdünnt das Konzentrat mit Wasser auf die gewünschte Konzentrationen.
Man füllt die wässrigen Wirkctoffzubereitungen in Gläser und setzt anschließend 20 Mückenlarven (L4) (Aedes aegypti) in jedes Glas ein.
Nach der gewünschten Zeit wird die Abtötung in % bestimmt. Dabei bedeutet 100 X, daß alle Tiere abgetötet wurden; 0 % bedeutet, daß keine Tiere abgetötet wurden.

The test system of assay [4] is Larven (L3) des Meerrettichkäfers (Phaedon cochleariae). As to the kind of experiment: Phaedon larvae test (treated cabbage leaves). The class given is in vivo. As to conditions: Phaedon cochleariae larvae (L3) on treated Brassica oleracea leaves; compared with the prior art; figures not given. The source says: (§1) • Lösungsmittel: 3 Gewichtsteile Aceton • Emulgator: 1 Gewichtsteil Alkylarylpolyglykolether
Zur Herstellung einer zweckmäßigen Wirkstoffzubereitung vermischt man 1 Gewichtsteil Wirkstoff mit der angegebenen Menge Lösungsmittel und der angegebenen Menge Emulgator und verdünnt das.Konzentrat mit Wasser auf die gewünschte Konzentration.
Kohlpflanzen (Brassica oleracea) werden mit der Wirkstoffzubereitung der gewünschten Konzentration behandelt. Ein Blatt der behandelten Pflanze wird in eine Plastikdose gelegt und mit Larven (L3) des Meerrettichkäfers (Phaedon cochleariae) besetzt. Nach 2 und 4 Tagen wird jeweils ein weiters Blatt von derselben Pflanze für die Nachfütterung verwendet.
Nach der gewünschten Zeit wird die Abtötung in % bestimmt. Dabei bedeutet 100 X, daß alle Käferlarven abgetötet wurden.

The test system of assay [5] is Raupe (L5) der Art Spodoptera frugiperda. The assay can be described thus: Spodoptera test (treated artificial diet discs). Format: in vivo. As to conditions: Spodoptera frugiperda caterpillars (L5) on treated artificial diet; compared with the prior art; figures not given.
From the text: as §1
Zur Herstellung einer zweckmäßigen Wirkstoffzubereitung vermischt man 1 Gewichtsteil Wirkstoff mit der angegebenen Menge Lösungsmittel und der angegebenen Menge Emulgator und verdünnt das Konzentrat mit Wasser auf die gewünschte Konzentrationen.
Kunstfutterscheiben, die in Plastikdosen liegen, werden durch Beträufeln mit der Wirkstoffzubereitung der gewünschten Konzentration behandelt. Nach Eindringen der Lösung besetzt man die Plastikdosen mit je 1 Raupe (L5) der Art Spodoptera frugiperda, wobei je Versuchsglied 5 Wiederholungen aufgestellt werden. Nach der Verpuppung legt man die Tiere eines Versuchsglieds in eine größere Dose. Nach der gewünschten Zeit wird die Abtötung in % bestimmt. Dabei bedeutet 100 X, daß alle Tiere abgetötet wurden; 0 X bedeutet, daß keine Tiere abgetötet wurden.

In assay [6] the test system is Musca domestica-tmultiresistent) Maden. As to the kind of experiment: Fly maggot development inhibition test. As to conditions: Musca domestica maggots on treated filter paper, 14 days; compared with the prior art; figures not given. Format: in vivo. As to the method:
Fliegenmaden-Entwicklungshommungstest Testtiere: Musca domestica-tmultiresistent) Maden Lösungsmittel: Aceton
2 Gewichtsteile Wirkstoff werden in 1 000 Volumenteilen Lösungsmittel aufgenommen. Die so erhaltene Lösung wird mit weiteren Lösungsmitteln auf die gewünschten Konzentrationen verdünnt.
2,5 ml Wirkstofflösung werden in eine Petrischale pipettiert. Auf dem Boden der Petrischale befindet sich ein Filterpapier mit einem Durchmesser von etwa 9,5 cm. Die Petrischale bleibt so lange offen stehen, bis das Lösungsmittel vollständig verdunstet ist. Je nach Konzentration der Wirkstofflösung ist die Menge Wirkstoff pro m^2 Filterpapier verschieden hoch. Anschließend gibt man etwa 25 Testtiere in die Petrischale und bedeckt sie mit einem Glasdeckel.
14 Tage nach Ansetzen der Versuche wird die Zahl der geschlüpften Fliegen kontrolliert. Bestimmt wird der X-Satz der Schlüpfhemmung im Vergleich zur unbehandelten Kontrolle.

For the compound `COc1ccc(NC(=O)C2C(=O)N(C)P(=O)(Oc3ccc(C)cc3)N(C)C2=O)cc1` (stereo not drawn) [Beispiel 20], in assay [1], the minimal effective concentration came out at 10 µg/mL.

In the case of `CN1C(=O)C(C(=O)Nc2ccccc2SC(F)(F)F)C(=O)N(C)P1(=O)Oc1ccccc1` (stereo not drawn) [Beispiel 11], in assay [1], the minimal effective concentration is 100 µg/mL. As for `CN1C(=O)C(C(=O)Nc2ccc(SC(F)(F)F)cc2)C(=O)N(c2ccccc2)P1(=O)Oc1ccccc1` (stereo not drawn) [Beispiel 44], the minimal effective concentration in assay [1] worked out at 10 µg/mL. Same read-out and setting: in the case of `CCN1C(=O)C(C(=O)Nc2ccc(C(F)(F)F)c(Cl)c2)C(=O)N(C)P1(=O)Oc1cccc(Cl)c1` (stereo not drawn) [Beispiel 55] it was 10 µg/mL; in that of `CC(C)N1C(=O)C(C(=S)Nc2ccccc2)C(=O)N(C)P1(=O)Oc1cccc(Cl)c1` (stereo not drawn) [Beispiel 62], 100 µg/mL; in that of `CCN1C(=O)C(C(=O)Nc2ccc(SC(F)(F)F)cc2)C(=O)N(C)P1(=O)Oc1cccc(Cl)c1` (stereo not drawn) [Beispiel 58], 10 µg/mL. `CC(C)N1C(=O)C(C(=O)Nc2ccc(C(F)(F)F)c(Cl)c2)C(=O)N(C)P1(=O)Oc1cccc(Cl)c1` (stereo not drawn) [Beispiel 41]: the minimal effective concentration in assay [1] came to 10 µg/mL. Also, the Abtötungsgrad entry in assay [2] is given as “überlegene Wirkung gegenüber dem Stand der Technik”. Consider `CC(C)N1C(=O)C(C(=O)Nc2ccc(SC(F)(F)F)c(Cl)c2)C(=O)N(C)P1(=O)Oc1cccc(Cl)c1` (stereo not drawn) [Beispiel 64], for which the minimal effective concentration in assay [1] is 10 µg/mL. `CN1C(=O)C(C(=O)Nc2ccc(SC(F)(F)F)cc2)C(=O)N(C)P1(=O)Oc1ccccc1` (stereo not drawn) [Beispiel 10]: the Abtötung in % entry in assay [3], in assay [4] and in assay [5] was “überlegene Wirksamkeit gegenüber dem Stand der Technik” in each case. For the same compound, the minimal effective concentration in assay [1] was found to be 10 µg/mL. On to `COc1ccc(NC(=O)C2C(=O)N(C)P(=O)(Oc3ccc(OC)cc3)N(C)C2=O)cc1` (stereo not drawn) [Beispiel 19], for which the minimal effective concentration in assay [1] is 100 µg/mL. On the same count and under the same terms, in the case of `CN1C(=O)C(C(=O)Nc2ccc([N+](=O)[O-])cc2)C(=O)N(C)P1(=O)Oc1ccc([N+](=O)[O-])cc1` (stereo not drawn) [Beispiel 18] it was 100 µg/mL.

Regarding `CCN1C(=O)C(C(=O)Nc2ccc(C(F)(F)F)c(C(F)(F)F)c2)C(=O)N(C)P1(=O)Oc1cccc(Cl)c1` (stereo not drawn) [Beispiel 61], the minimal effective concentration in assay [1] was determined as 10 µg/mL. Regarding `CN1C(=O)C(C(=O)Nc2ccc(SC(F)(F)F)cc2)C(=O)N(C)P1(=O)Oc1cccc(Cl)c1` (stereo not drawn) [Beispiel 37], in assay [1], the minimal effective concentration stood at 10 µg/mL.

`CN1C(=O)C(C(=O)Nc2ccc(S(=O)(=O)C(F)(F)F)cc2)C(=O)N(C)P1(=O)Oc1ccc(Cl)cc1` (stereo not drawn) [Beispiel 5] yielded a Dosis effectiva in assay [1] of 10 mg/L. As to `Cc1cccc(OP2(=O)N(C)C(=O)C(C(=O)Nc3ccc(Cl)c(C(F)(F)F)c3)C(=O)N2C(C)C)c1` (stereo not drawn) [Beispiel 65], the minimal effective concentration in assay [1] stood at 10 µg/mL. The same measure, in the same setting: in the case of `CCN1C(=O)C(C(=O)Nc2ccc(Oc3ccc(C(F)(F)F)cc3)cc2)C(=O)N(C)P1(=O)Oc1cccc(Cl)c1` (stereo not drawn) [Beispiel 46] it was 10 µg/mL; in that of `CN1C(=O)C(C(=O)Nc2ccc(OC(F)(F)F)cc2)C(=O)N(C)P1(=O)Oc1cccc(Cl)c1` (stereo not drawn) [Beispiel 38], 10 µg/mL.

`CN1C(=O)C(C(=O)Nc2ccc(OC(F)(F)F)cc2)C(=O)N(C)P1(=S)Oc1ccc(Cl)cc1` (stereo not drawn) [Beispiel 30]: the minimal effective concentration in assay [1] was found to be 10 µg/mL. Further, the Abtötung in % result in assay [5] is listed as “überlegene Wirksamkeit gegenüber dem Stand der Technik”. Further, the “X-Satz der Schlüpfhemmung im Vergleich zur unbehandelten Kontrolle” value in assay [6] is given as “überlegene Wirksamkeit gegenüber dem Stand der Technik”. Regarding `CCN1C(=O)C(C(=O)Nc2ccc(OC(F)(F)F)cc2)C(=O)N(C)P1(=O)Oc1cccc(Cl)c1` (stereo not drawn) [Beispiel 59], in assay [1], the minimal effective concentration turned out to be 10 µg/mL. Take `CN1C(=O)C(C(=O)Nc2ccc(OC(F)(F)F)cc2)C(=O)N(C)P1(=O)Oc1ccc(Cl)cc1` (stereo not drawn) [Beispiel 17]: in assay [1], the minimal effective concentration amounted to 10 µg/mL. Also, the Abtötung in % entry in assay [5] is on record as “überlegene Wirksamkeit gegenüber dem Stand der Technik”. As to `CC(C)N1C(=O)C(C(=O)Nc2ccc(SC(F)(F)F)cc2)C(=O)N(C)P1(=O)Oc1cccc(Cl)c1` (stereo not drawn) [Beispiel 42], the minimal effective concentration in assay [1] came to 10 µg/mL.

For `CC(C)N1C(=O)C(C(=O)Nc2ccc(C(F)(F)F)cc2C(F)(F)F)C(=O)N(Cc2ccccc2)P1(=O)Oc1cccc(Cl)c1` (stereo not drawn) [Beispiel 51], the minimal effective concentration in assay [1] amounted to 100 µg/mL. `CCN1C(=O)C(C(=O)Nc2ccc(Cl)c(C(F)(F)F)c2)C(=O)N(C)P1(=O)Oc1cccc(Cl)c1` (stereo not drawn) [Beispiel 57]: in assay [1], the minimal effective concentration stood at 10 µg/mL. Turning to `CN1C(=O)C(C(=O)Nc2ccc(S(=O)(=O)C(F)(F)F)cc2)C(=O)N(C)P1(=O)Oc1ccc(Cl)cc1` (stereo not drawn) [Beispiel 26], the Abtötung in % entry in assay [3] is recorded as “überlegene Wirksamkeit gegenüber dem Stand der Technik”. The same compound registered a Dosis effectiva in assay [1] of 100 mg/L. In addition, the Abtötungsgrad entry in assay [2] is given as “überlegene Wirkung gegenüber dem Stand der Technik”. The “X-Satz der Schlüpfhemmung im Vergleich zur unbehandelten Kontrolle” value in assay [6] is on record as “überlegene Wirksamkeit gegenüber dem Stand der Technik”.

`CN1C(=O)C(C(=O)Nc2ccc(SC(F)(F)F)cc2)C(=O)N(C)P1(=S)Oc1ccccc1` (stereo not drawn) [Beispiel 33]: the minimal effective concentration in assay [1] is 10 µg/mL. In addition, the Abtötungsgrad result in assay [2] is recorded as “überlegene Wirkung gegenüber dem Stand der Technik”. In the case of `Cc1cccc(OP2(=O)N(C)C(=O)C(C(=O)Nc3ccc(SC(F)(F)F)cc3)C(=O)N2C(C)C)c1` (stereo not drawn) [Beispiel 54], in assay [1], the minimal effective concentration was 10 µg/mL. Take `CN1C(=O)C(C(=O)Nc2ccc(OC(F)(F)C(F)F)cc2)C(=O)N(C)P1(=O)Oc1ccccc1` (stereo not drawn) [Beispiel 15]: in assay [4], the Abtötung in % result was “überlegene Wirksamkeit gegenüber dem Stand der Technik”. The minimal effective concentration in assay [1] came out at 10 µg/mL.

Consider `CN1C(=O)C(C(=O)Nc2ccc(S(=O)(=O)C(F)(F)F)cc2)C(=O)N(C)P1(=O)Oc1ccccc1` (stereo not drawn) [Beispiel 13], for which, in assay [1], the minimal effective concentration was determined as 10 µg/mL. Take `CN1C(=O)C(C(=O)Nc2ccc(SC(F)(F)F)cc2)C(=O)N(C)P1(=S)Oc1ccc(Cl)cc1` (stereo not drawn) [Beispiel 34]: the minimal effective concentration in assay [1] was 100 µg/mL. Besides, the Abtötungsgrad result in assay [2] is “überlegene Wirkung gegenüber dem Stand der Technik”. The Abtötung in % entry in assay [5] is on record as “überlegene Wirksamkeit gegenüber dem Stand der Technik”. With `CCN1C(=O)C(C(=O)Nc2ccc(C(F)(F)F)cc2C(F)(F)F)C(=O)N(C)P1(=O)Oc1cccc(Cl)c1` (stereo not drawn) [Beispiel 56], the minimal effective concentration in assay [1] was 10 µg/mL. In the case of `CN1C(=O)C(C(=O)Nc2ccc([N+](=O)[O-])cc2)C(=O)N(C)P1(=O)Oc1ccc(Cl)cc1` (stereo not drawn) [Beispiel 4], in assay [1], the minimal effective concentration stood at 10 µg/mL. As for `CN1C(=O)C(C(=O)Nc2ccc(Cl)c(C(F)(F)F)c2)C(=O)N(C)P1(=S)Oc1ccc(Cl)cc1` (stereo not drawn) [Beispiel 6], the Abtötung in % entry in assay [3] was “überlegene Wirksamkeit gegenüber dem Stand der Technik”. For the same compound, in assay [1], the minimal effective concentration is 10 µg/mL. The “X-Satz der Schlüpfhemmung im Vergleich zur unbehandelten Kontrolle” value in assay [6] is on record as “überlegene Wirksamkeit gegenüber dem Stand der Technik”.

These data come from EP0216105A1, “Diazaphosphorines, process for their preparation and their use as pesticide” (priority 1985, dated 1987).
